The compounds below were run against T1, hKv7.2/hKv7.3 (Homo sapiens, UniProt O43525+O43526) (assay: Automated whole cell patch-clamp functional test of the HEK-hKv7.2/hKv7.3 cell line). Settings: stable HEK-hKv7.2/hKv7.3 cell line.
T1 construct: P2A remnant (self-cleaving peptide between Kv7.3 and Kv7.2) (C); expressed in transfected cells
Type: cell-based
Experimental: (§1) A synthesized cDNA fragment encoding human Kv7.3 and human Kv7.2 separated by a P2A sequence was inserted into the pcDNA5/FRT/TO vector using the BamHI and XhoI restriction sites. The construct was then transfected into HEK Flp-In 293 cells using Lipofectamine2000. The transfected cells were grown for 48 hours in DMEM containing 10% (v/v) FBS and 1% PenStrep and subsequently maintained under selection in DMEM containing 10% (v/v) FBS, 1% PenStrep and 200 ug/mL Hygromycin B at 37° C. in a humidified atmosphere of 5% CO2.
`CCOC(=O)Nc1ccc(NCc2ccc(F)cc2)cc1N` [Retigabine, N-(2-amino-4-(4-fluorobenzylamino)-phenyl) carbamic acid ethyl ester] was tested, and the “effect on Kv7-current” value was “potentiated”. `O=C1c2ccccc2C(Cc2ccncc2)(Cc2ccncc2)c2ccccc21` [XE991] was tested, and the “effect on Kv7-current” value was “sensitive”.

These compounds were tested against T1, hKv7.2/hKv7.3 (assay: Thallium influx assay for potassium channel activation). Settings: HEK-hKv7.2/hKv7.3 cells; FLIPR Potassium Assay kit; AUC readout normalized to a reference compound.
Type: cell-based
Experimental: as §1
The thallium influx assay for potassium channel activation was performed analogously to a published procedure (C. D. Weaver, et al., J Biomol Screen 2004, 9, 671-677) using the FLIPR Potassium Assay kit (Molecular Devices). HEK-hKv7.2/hKv7.3 cells were plated onto 96-well, black-walled, clear-bottomed culture plates (Corning, Acton, Mass., USA) at a density of 80,000 cells/well (100 μl/well) if the cells were assayed the following day, or 40,000 cells/well (100 μl/well) if the cells were assayed two days after seeding.
On the assay day, the medium was removed after which 50 uL/well of test compound diluted to 2× final concentration in HBSS containing 20 mM HEPES, and 50 uL/well of 2× dye load buffer were added. The cells were then incubated for 60 min at room temperature in the dark. Chloride-free stimulation buffer containing Tl^+ and K^+ at 5× final concentration (5× concentration: 5 mM in both cases) and test compound at 1× final concentration, were prepared during the incubation. The cells were then assayed in a FDSS7000EX Functional Drug Screening System (Hamamatsu). Following 60 sec of baseline fluorescence signal reading at 0.1 Hz, and 10 sec at 1 Hz, 25 uL/well of stimulation buffer were added and the fluorescence continuously measured for 50 sec at 1 Hz followed, by 4 min at 0.1 Hz. Compound effect was quantified using AUC as readout and normalized to a reference compound, which was included on each plate.
`CC(C)C(O)(CC(=O)N[C@@H](C)c1cccc(OCC(F)(F)F)c1)C(F)(F)F` (single isomer, unassigned) [Example 7a] gave an EC50 of 0.22 µM. `C[C@H](NC(=O)CC(O)C(C)(C)C)c1cccc(C(F)(F)F)c1` (single isomer, unassigned) [Example 4a] was tested, and the EC50 was 11 µM. Work on `C[C@H](NC(=O)CC(C)(O)CC(F)(F)F)c1cccc(OC(F)(F)F)c1` (single isomer, unassigned) [Example 13b] yielded an EC50 of 2.9 µM. In the case of `CC(C)C(O)CC(=O)N[C@@H](C)c1cccc(OCC(F)(F)F)c1` (single isomer, unassigned) [Example 12b], the EC50 is reported as 5.9 µM. Work on `C[C@H](NC(=O)CC(C)(O)C1(F)CC1)c1cccc(OC(F)(F)F)c1` (single isomer, unassigned) [Example 15b] yielded an EC50 of 11 µM. Work on `CC(C)C(O)CC(=O)N[C@@H](C)c1cccc(OCC(F)(F)F)c1` (single isomer, unassigned) [Example 12a] yielded an EC50 of 1.6 µM. `CC(C)C(O)CC(=O)N[C@@H](C)c1cccc(OC(F)(F)F)c1` (single isomer, unassigned) [Example 20b] showed an EC50 of 14 µM. `CC(C)C(O)CC(=O)N[C@@H](C)c1cccc(OC(F)(F)F)c1` (single isomer, unassigned) [Example 20a] showed an EC50 of 3.1 µM. With `C[C@H](NC(=O)CC(O)C(C)(C)C)c1cccc(OCC(F)(F)F)c1` (single isomer, unassigned) [Example 2b] the EC50 was 1.8 µM. For `C[C@H](NC(=O)CC(C)(O)C(F)(F)F)c1cccc(OCC(F)(F)F)c1` (single isomer, unassigned) [Example 19b], the EC50 was 3.4 µM. For `C[C@H](NC(=O)CC(C)(O)C(F)(F)C(F)F)c1cccc(OC(F)(F)F)c1` (single isomer, unassigned) [Example 10b], the EC50 was 1.3 µM. Work on `CC(C)C(O)(CC(=O)N[C@@H](C)c1cccc(OCC(F)(F)F)c1)C(F)(F)F` (single isomer, unassigned) [Example 7b] yielded an EC50 of 1.5 µM. Compound `C[C@H](NC(=O)CC(O)C(C)(C)C)c1cccc(OC(F)F)c1` (single isomer, unassigned) [Example 3b] has an EC50 of 1.5 µM. Compound `C[C@H](NC(=O)CC(O)C1(C(F)(F)F)CC1)c1cccc(OC(F)(F)F)c1` (single isomer, unassigned) [Example 16a] has an EC50 of 3 µM. `C[C@H](NC(=O)CC(O)C(C)(C)C)c1cccc(OCC(F)(F)F)c1` (single isomer, unassigned) [Example 2a] showed an EC50 of 0.46 µM. Work on `CC[C@H](NC(=O)CC(O)C(C)(C)C)c1cccc(OC(F)(F)F)c1` (single isomer, unassigned) [Example 8a] yielded an EC50 of 0.43 µM. Compound `C[C@H](NC(=O)C[C@@H](O)C1(C(F)F)CC1)c1cccc(OC(F)(F)F)c1` (single isomer, unassigned) [Example 14b] has an EC50 of 6.6 µM. `C[C@H](NC(=O)CC(O)C1CC(F)(F)C1)c1cccc(OC(F)(F)F)c1` (single isomer, unassigned) [Example 11b] was tested, and the EC50 was 4.5 µM. In the case of `C[C@H](NC(=O)CC(C)(O)C1CC1)c1cccc(OCC(F)(F)F)c1` (single isomer, unassigned) [Example 18b], the EC50 is reported as 7.1 µM. `CC[C@H](NC(=O)CC(O)C(C)(C)C)c1cccc(OC(F)(F)F)c1` (single isomer, unassigned) [Example 8b] gave an EC50 of 3 µM. `C[C@H](NC(=O)CC(O)C1(C(F)F)CC1)c1cccc(OC(F)(F)F)c1` (single isomer, unassigned) [Example 14a] was tested, and the EC50 was 2 µM. With `C[C@H](NC(=O)CC(C)(O)C1CC1)c1cccc(OCC(F)(F)F)c1` (single isomer, unassigned) [Example 18a] the EC50 was 1.3 µM. `C[C@H](NC(=O)CC(O)C(C)(C)C)c1cccc(OC(F)F)c1` (single isomer, unassigned) [Example 3a] was tested, and the EC50 was 11 µM. `C[C@H](NC(=O)CC(C)(O)C(F)(F)F)c1cccc(OCC(F)(F)F)c1` (single isomer, unassigned) [Example 19a] showed an EC50 of 1.7 µM. `C[C@H](NC(=O)CC(O)C1(C(F)(F)F)CC1)c1cccc(OC(F)(F)F)c1` (single isomer, unassigned) [Example 16b] showed an EC50 of 10 µM. `C[C@H](NC(=O)CC(O)C(C)(C)C)c1cccc(C(F)(F)F)c1` (single isomer, unassigned) [Example 4b] gave an EC50 of 1.2 µM. For `C[C@H](NC(=O)C[C@@](C)(O)C1(F)CC1)c1cccc(OC(F)(F)F)c1` (single isomer, unassigned) [Example 15a], the EC50 was 2.1 µM.

Reference: patent US11434199B2, “Alcohol derivatives as KV7 potassium channel openers” (H. Lundbeck A/S, priority 2018, dated 2022)
